Paper PMC6458995, “MAP4K4 Inhibition Promotes Survival of Human Stem Cell-Derived Cardiomyocytes and Reduces Infarct Size In Vivo” (Cell Stem Cell, 2019)

Key:
Test in all cases: Dundee kinase panel
Assay type in all cases: biochemical
Conditions in all cases: for remaining activity at 1 µM: read-out: residual activity
PAK4 = biological target: T1, PAK4 (Homo sapiens, UniProt O96013)
T1 construct: lines 1-140) and Reaction Biology
Description: (§1) Compounds were screened at 1 μM. For key hits, pIC50 values were then determined by HTRF as above. […] Stability in mouse and human liver microsomes was determined by Cyprotex.

FGF-R1 = biological target: T2, FGF-R1 (Homo sapiens, UniProt P11362)
T2 construct: lines 1-140) and Reaction Biology
Description: as §1

IGF-1R = biological target: T3, IGF-1R (Homo sapiens, UniProt P08069)
T3 construct: lines 1-140) and Reaction Biology
Description: as §1

MELK = biological target: T4, MELK (Homo sapiens, UniProt Q14680)
T4 construct: lines 1-140) and Reaction Biology
Description: as §1

MNK2 = biological target: T5, MNK2 (Homo sapiens, UniProt Q9HBH9)
T5 construct: lines 1-140) and Reaction Biology
Description: as §1

TBK1 = biological target: T6, TBK1 (Homo sapiens, UniProt Q9UHD2)
T6 construct: lines 1-140) and Reaction Biology
T6 sequence (Q9UHD2 1-729): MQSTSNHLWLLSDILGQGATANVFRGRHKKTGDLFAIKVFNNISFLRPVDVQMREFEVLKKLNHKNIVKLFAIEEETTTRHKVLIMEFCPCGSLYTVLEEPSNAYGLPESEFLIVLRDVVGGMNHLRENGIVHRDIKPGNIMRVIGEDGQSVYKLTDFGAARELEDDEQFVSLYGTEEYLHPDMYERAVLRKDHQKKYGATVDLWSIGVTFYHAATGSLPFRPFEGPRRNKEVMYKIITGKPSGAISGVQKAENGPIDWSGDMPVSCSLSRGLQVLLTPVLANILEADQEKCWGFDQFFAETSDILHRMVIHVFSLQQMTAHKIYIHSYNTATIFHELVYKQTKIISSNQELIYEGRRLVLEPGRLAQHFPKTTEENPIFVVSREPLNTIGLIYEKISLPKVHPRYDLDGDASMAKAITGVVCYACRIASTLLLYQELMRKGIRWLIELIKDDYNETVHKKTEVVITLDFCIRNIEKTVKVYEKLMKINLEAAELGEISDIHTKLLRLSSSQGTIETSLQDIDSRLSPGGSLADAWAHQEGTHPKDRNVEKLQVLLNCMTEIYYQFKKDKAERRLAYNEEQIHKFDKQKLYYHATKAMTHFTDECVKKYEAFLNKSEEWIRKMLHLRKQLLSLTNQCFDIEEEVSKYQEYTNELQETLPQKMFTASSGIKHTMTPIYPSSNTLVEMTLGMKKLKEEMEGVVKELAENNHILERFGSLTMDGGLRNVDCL
Description: as §1

DYRK2 = biological target: T7, DYRK2 (Homo sapiens, UniProt Q92630)
T7 construct: lines 1-140) and Reaction Biology
T7 sequence (Q92630 1-601): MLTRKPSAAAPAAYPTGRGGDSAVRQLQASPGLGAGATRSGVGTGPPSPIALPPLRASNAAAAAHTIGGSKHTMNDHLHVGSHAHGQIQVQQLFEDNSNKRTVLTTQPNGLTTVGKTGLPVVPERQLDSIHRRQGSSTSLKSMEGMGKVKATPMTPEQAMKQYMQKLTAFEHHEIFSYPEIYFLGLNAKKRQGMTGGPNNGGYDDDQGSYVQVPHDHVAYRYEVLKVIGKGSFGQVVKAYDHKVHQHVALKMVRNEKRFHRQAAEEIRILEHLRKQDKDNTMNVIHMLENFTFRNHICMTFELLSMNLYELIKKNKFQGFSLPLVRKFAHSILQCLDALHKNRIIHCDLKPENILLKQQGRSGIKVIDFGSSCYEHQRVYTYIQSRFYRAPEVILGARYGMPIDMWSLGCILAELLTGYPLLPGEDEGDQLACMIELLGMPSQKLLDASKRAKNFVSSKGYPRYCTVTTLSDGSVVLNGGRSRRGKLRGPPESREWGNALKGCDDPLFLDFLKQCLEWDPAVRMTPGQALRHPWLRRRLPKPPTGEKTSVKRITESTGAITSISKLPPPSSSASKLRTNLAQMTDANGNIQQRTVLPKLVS
Description: as §1

PAK5 = biological target: T8, PAK5 (Homo sapiens, UniProt Q9P286)
T8 construct: lines 1-140) and Reaction Biology
Description: as §1

Aurora A = biological target: T9, Aurora A (Homo sapiens, UniProt O14965)
T9 construct: lines 1-140) and Reaction Biology
T9 sequence (O14965 1-403): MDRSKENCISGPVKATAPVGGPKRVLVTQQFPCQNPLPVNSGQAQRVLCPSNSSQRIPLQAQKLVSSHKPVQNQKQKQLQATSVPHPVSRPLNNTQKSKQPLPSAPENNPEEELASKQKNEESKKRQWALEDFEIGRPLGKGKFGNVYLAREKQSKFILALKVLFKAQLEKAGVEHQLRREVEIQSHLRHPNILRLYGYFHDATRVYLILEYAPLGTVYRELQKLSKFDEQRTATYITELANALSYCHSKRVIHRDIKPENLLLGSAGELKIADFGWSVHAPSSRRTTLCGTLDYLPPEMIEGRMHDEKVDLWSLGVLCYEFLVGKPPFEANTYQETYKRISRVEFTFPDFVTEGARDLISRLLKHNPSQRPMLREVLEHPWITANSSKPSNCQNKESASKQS
Description: as §1

TLK1 = biological target: T10, TLK1 (Homo sapiens, UniProt Q9UKI8)
T10 construct: lines 1-140) and Reaction Biology
T10 sequence (Q9UKI8 1-766): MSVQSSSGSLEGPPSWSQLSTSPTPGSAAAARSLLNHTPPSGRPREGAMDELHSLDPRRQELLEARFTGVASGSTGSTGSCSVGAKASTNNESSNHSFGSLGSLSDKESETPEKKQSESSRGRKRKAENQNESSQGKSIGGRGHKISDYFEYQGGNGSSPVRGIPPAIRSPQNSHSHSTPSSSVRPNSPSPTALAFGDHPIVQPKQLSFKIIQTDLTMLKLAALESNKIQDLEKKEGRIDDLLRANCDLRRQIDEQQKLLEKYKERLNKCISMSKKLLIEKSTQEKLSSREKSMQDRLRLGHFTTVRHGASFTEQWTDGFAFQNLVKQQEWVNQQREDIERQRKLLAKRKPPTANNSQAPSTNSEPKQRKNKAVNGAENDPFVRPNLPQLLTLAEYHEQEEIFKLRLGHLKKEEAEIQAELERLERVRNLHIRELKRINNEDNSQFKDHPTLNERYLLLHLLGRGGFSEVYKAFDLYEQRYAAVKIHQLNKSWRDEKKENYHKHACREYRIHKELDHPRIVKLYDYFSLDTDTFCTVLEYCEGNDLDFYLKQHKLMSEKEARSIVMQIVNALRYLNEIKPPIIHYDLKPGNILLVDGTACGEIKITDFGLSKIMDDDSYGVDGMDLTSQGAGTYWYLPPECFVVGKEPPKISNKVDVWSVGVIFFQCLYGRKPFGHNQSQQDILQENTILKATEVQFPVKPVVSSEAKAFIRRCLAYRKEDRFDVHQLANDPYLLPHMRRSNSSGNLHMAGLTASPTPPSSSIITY
Description: as §1

T8 sequence (Q9P286 whole entry): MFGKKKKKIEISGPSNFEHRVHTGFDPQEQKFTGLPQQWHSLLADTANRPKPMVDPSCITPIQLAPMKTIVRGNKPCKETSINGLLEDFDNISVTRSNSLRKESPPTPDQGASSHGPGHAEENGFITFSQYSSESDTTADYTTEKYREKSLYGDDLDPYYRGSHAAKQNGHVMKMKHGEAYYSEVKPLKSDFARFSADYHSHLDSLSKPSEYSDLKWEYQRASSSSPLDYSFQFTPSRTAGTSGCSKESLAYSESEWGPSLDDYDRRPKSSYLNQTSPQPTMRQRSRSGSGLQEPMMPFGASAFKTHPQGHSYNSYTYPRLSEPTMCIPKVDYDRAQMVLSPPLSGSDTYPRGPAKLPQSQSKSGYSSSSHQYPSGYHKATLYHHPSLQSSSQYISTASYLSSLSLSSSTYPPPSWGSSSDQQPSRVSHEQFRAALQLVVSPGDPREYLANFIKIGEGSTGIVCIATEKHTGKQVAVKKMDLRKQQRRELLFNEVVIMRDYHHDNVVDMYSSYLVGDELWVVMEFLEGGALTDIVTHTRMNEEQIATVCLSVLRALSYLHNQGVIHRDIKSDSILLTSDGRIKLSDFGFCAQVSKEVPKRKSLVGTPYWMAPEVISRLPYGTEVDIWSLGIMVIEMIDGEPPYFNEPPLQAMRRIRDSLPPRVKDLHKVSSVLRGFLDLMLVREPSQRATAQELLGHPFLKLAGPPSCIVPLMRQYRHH
T2 sequence (P11362 22-822): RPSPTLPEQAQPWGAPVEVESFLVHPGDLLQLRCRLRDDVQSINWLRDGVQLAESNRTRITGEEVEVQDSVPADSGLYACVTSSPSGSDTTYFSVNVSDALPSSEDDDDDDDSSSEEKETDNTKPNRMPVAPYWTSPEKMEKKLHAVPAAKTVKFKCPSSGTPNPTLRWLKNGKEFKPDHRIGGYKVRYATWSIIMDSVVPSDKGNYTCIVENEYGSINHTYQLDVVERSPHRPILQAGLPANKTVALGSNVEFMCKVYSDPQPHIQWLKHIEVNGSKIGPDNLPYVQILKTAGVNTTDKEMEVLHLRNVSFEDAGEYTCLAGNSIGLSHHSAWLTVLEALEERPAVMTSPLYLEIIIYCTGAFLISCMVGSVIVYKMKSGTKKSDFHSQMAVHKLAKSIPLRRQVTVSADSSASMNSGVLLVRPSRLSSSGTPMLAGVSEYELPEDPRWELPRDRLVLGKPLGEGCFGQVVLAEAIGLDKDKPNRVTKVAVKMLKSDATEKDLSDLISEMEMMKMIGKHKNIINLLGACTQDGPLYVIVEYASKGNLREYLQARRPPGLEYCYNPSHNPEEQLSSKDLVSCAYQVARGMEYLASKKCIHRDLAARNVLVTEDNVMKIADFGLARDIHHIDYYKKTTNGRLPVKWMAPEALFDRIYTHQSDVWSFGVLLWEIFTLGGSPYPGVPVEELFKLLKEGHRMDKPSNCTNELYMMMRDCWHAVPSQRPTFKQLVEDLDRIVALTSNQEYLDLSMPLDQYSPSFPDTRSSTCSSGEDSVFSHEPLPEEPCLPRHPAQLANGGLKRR
T4 sequence (Q14680 whole entry): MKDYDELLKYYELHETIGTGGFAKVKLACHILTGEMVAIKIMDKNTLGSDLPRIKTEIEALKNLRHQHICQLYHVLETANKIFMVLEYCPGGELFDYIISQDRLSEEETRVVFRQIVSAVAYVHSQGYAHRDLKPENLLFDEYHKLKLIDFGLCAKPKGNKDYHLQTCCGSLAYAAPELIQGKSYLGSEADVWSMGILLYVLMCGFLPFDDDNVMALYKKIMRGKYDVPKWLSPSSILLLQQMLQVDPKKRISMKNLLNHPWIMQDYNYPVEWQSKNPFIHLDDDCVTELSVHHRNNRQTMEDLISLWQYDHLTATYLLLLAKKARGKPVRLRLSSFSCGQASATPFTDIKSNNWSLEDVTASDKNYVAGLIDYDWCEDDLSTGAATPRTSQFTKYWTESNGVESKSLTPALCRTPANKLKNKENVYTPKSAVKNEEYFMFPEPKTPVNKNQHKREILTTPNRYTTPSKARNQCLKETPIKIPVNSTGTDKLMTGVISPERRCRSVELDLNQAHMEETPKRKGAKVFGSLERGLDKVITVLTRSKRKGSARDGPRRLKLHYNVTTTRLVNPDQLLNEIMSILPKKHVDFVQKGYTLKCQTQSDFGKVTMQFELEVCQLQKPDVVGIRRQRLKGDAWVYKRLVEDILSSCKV
T5 sequence (Q9HBH9 whole entry): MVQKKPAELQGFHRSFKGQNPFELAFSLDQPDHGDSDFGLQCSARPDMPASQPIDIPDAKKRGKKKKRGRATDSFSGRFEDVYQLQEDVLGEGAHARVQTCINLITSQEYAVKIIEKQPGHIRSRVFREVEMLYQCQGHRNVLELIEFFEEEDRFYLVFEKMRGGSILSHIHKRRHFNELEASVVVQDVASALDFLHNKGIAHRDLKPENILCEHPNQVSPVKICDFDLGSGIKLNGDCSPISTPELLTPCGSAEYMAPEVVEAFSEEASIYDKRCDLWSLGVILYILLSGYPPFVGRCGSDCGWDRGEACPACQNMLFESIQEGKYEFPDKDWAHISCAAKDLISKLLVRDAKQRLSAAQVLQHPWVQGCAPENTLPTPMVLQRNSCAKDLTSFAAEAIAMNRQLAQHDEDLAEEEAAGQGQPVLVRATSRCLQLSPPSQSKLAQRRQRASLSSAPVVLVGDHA
T3 sequence (P08069 31-1367): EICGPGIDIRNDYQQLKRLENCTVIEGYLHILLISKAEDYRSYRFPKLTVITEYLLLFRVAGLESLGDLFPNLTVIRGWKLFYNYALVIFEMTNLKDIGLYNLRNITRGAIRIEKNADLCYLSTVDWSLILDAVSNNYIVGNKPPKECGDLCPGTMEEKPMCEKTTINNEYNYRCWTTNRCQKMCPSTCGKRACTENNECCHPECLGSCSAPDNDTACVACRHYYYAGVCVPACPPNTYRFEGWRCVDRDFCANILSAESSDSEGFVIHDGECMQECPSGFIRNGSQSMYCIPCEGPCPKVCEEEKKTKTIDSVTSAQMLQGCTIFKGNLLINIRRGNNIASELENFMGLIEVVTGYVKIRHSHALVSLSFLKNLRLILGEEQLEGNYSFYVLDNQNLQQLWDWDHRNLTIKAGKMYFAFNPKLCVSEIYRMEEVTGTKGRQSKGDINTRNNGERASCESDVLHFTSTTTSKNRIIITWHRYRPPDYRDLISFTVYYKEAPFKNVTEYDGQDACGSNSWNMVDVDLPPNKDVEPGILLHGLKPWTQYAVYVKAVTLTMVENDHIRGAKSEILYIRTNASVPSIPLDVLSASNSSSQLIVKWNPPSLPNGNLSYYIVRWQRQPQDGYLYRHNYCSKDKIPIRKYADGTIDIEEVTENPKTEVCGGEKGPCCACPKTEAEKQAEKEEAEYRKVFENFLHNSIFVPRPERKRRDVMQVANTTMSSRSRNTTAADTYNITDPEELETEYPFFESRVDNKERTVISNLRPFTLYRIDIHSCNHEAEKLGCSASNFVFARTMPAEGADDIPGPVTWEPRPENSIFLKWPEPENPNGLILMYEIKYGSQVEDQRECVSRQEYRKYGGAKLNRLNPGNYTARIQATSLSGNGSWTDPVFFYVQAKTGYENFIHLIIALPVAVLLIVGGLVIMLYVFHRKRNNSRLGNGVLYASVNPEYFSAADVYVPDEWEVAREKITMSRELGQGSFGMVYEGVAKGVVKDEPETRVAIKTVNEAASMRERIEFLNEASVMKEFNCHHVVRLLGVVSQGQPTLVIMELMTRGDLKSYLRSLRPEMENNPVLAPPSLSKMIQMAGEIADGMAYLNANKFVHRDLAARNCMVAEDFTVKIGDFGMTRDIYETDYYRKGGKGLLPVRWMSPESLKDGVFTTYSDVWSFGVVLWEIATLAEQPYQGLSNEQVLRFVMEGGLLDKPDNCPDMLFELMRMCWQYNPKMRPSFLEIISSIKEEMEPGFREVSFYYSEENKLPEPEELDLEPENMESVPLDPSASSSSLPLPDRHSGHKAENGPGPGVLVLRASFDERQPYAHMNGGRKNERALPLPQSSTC
T1 sequence (O96013 whole entry): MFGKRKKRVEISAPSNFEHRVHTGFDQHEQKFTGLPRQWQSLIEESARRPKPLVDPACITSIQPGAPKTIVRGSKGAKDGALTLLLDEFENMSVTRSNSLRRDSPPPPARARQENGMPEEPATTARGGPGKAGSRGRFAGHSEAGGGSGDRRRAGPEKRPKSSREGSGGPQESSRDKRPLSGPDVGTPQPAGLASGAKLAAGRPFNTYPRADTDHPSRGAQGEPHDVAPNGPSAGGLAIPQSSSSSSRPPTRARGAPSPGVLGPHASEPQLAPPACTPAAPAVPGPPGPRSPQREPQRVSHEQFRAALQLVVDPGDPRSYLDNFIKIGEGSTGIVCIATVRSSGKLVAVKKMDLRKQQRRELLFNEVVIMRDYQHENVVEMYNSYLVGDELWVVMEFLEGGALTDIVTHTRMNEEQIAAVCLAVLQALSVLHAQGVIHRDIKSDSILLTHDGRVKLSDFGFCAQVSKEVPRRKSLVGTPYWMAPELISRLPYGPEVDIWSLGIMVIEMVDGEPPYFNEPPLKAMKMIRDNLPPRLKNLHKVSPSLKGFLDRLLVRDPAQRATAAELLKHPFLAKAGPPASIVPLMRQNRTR

COCCOc1ccc(-c2cn(-c3ccccc3)c3nc[nH]c(=O)c23)cc1 [DMX-5804, 5-[4-(2-methoxy-ethoxy)-phenyl]-7-phenyl-3,7-dihydro-pyrrolo[2,3-d]pyrimidin-4-one]
remaining activity at 1 µM (PAK4): 100% | remaining activity at 1 µM (FGF-R1): 69% | remaining activity at 1 µM (IGF-1R): 112% | remaining activity at 1 µM (MELK): 83% | remaining activity at 1 µM (MNK2): 111% | remaining activity at 1 µM (TBK1): 48% | remaining activity at 1 µM (DYRK2): 115% | remaining activity at 1 µM (PAK5): 105% | remaining activity at 1 µM (Aurora A): 72% | remaining activity at 1 µM (TLK1): 111%

Oc1ncnc2c1c(-c1ccccc1)cn2-c1ccccc1 [F1386-0303, 5,7-diphenyl-7H-pyrrolo[2,3-d]pyrimidin-4-ol]
remaining activity at 1 µM (PAK4): 105% | remaining activity at 1 µM (FGF-R1): 99% | remaining activity at 1 µM (IGF-1R): 108% | remaining activity at 1 µM (MELK): 90% | remaining activity at 1 µM (MNK2): 109% | remaining activity at 1 µM (TBK1): 97% | remaining activity at 1 µM (DYRK2): 93% | remaining activity at 1 µM (PAK5): 105% | remaining activity at 1 µM (Aurora A): 111% | remaining activity at 1 µM (TLK1): 103%

Nc1ncc(C(=O)NC2CN(C(=O)C3CC3)C2)c2ccc(-c3cccc(F)c3)nc12 [GNE-495]
residual activity (PAK4; 1 μM): 28% | residual activity (FGF-R1; 1 μM): 119% | residual activity (IGF-1R; 1 μM): 85% | residual activity (MELK; 1 μM): 82% | residual activity (MNK2; 1 μM): 64% | residual activity (TBK1; 1 μM): 104% | residual activity (DYRK2; 1 μM): 55% | residual activity (PAK5; 1 μM): 55% | residual activity (Aurora A; 1 μM): 73% | residual activity (TLK1; 1 μM): 77%

O=C1Nc2ccc(I)cc2/C1=C/c1cc(Br)c(O)c(Br)c1 [GW5074]
remaining activity at 1 µM (PAK4): 94% | remaining activity at 1 µM (FGF-R1): 89% | remaining activity at 1 µM (IGF-1R): 88% | remaining activity at 1 µM (MELK): 48% | remaining activity at 1 µM (MNK2): 95% | remaining activity at 1 µM (TBK1): 83% | remaining activity at 1 µM (DYRK2): 13% | remaining activity at 1 µM (PAK5): 77% | remaining activity at 1 µM (Aurora A): 79% | remaining activity at 1 µM (TLK1): 86%

O=C1Cc2c([nH]c3ccc(Br)cc23)-c2ccccc2N1 [Kenpaullone]
remaining activity at 1 µM (PAK4): 104% | remaining activity at 1 µM (FGF-R1): 108% | remaining activity at 1 µM (IGF-1R): 74% | remaining activity at 1 µM (MELK): 38% | remaining activity at 1 µM (MNK2): 125% | remaining activity at 1 µM (TBK1): 90% | remaining activity at 1 µM (DYRK2): 91% | remaining activity at 1 µM (PAK5): 12% | remaining activity at 1 µM (Aurora A): 96% | remaining activity at 1 µM (TLK1): 95%
